Experimental data: PMC12210654, “Palazestrant, a novel oral Complete Estrogen Receptor Antagonist (CERAN) and Selective Estrogen Receptor Degrader (SERD), in patients with ER+/HER2− advanced or metastatic breast cancer: phase 1/2 study results” (Breast Cancer Research : BCR, 2025)
Several values for one entry are separate records, joined by “and”; a condition that tells them apart may be missing. Identical values can stand only once. Entries after “also recorded” stand apart in the source; their conditions may differ.

Assay: Safety: adverse events (NCI CTCAE v5.0), electrocardiograms
Type: in vivo, human
Method: Safety assessments included the monitoring of AEs, clinical laboratory parameters, electrocardiograms, and vital signs. AE severity was graded according to the National Cancer Institute Common Terminology Criteria for Adverse Events (version 5.0).
All DLT analyses (phase 1a) were performed in patients enrolled in the study during cycle 1 and who either received 75% of the planned palazestrant doses or experienced a DLT during cycle 1. All PK analyses were performed in patients who received at least 1 dose of palazestrant and had adequate postbaseline PK samples for characterization of PK parameters. All safety analyses were performed and PFS assessed in patients who received at least 1 dose of palazestrant. Clinical response (CR or PR) was assessed in patients who received at least 1 cycle of palazestrant, had measurable disease at baseline, and had at least 1 postbaseline tumor assessment. CBR was assessed in patients who received at least 1 cycle of palazestrant, had at least 1 postbaseline tumor assessment, and started their first dose at least 24 weeks before data cutoff. Patients who discontinued study treatment without radiographic progression within 24 weeks from the first dose were not included in the CBR analysis. PK parameters were estimated using conventional noncompartmental methods. For CBR, estimates were accompanied by 2-sided 95% confidence intervals (95% CIs). For PFS, Kaplan–Meier analyses were used to determine medians, event-free rates, and 95% CIs. For all other outcomes, categorical data were analyzed using frequencies and percentages, and continuous data were analyzed using means (standard deviation) or medians (range), as appropriate.

[1] = any patients treated with palazestrant

Q: Which results are given for `CCCN1CC(Oc2ccc([C@@H]3c4[nH]c5ccccc5c4C[C@@H](C)N3CC(C)(C)F)cc2)C1` [palazestrant, Palazestrant]?
A: TRAE nausea, any grade (120 mg/day (n = 86)): 54.7%; TRAE neutropenia, any grade (120 mg/day (n = 86)): 20.9%; TRAE vomiting, any grade (120 mg/day (n = 86)): 24.4%; grade 3 TRAE fatigue (120 mg/day (n = 86)): 2.3%; grade 3 TRAE nausea (120 mg/day (n = 86)): 3.5%; grade 3 TRAE neutropenia (120 mg/day (n = 86)): 3.5%; grade 3 TRAE vomiting (120 mg/day (n = 86)): 2.3%; grade 4 TEAE acute respiratory failure (120 mg/day (n = 86)): 1 patients; grade 4 TEAE neutropenia (120 mg/day (n = 86)): 6 patients; grade ≥ 3 TEAE neutropenia (120 mg/day (n = 86)): 10.5%; patients with 3 grade 4 events (pulmonary embolism, diverticulitis, acute left ventricular failure) (120 mg/day (n = 86)): 1 patient; patients with Grade 3 TEAEs (120 mg/day (n = 86)): 24.4%; patients with Grade 3 treatment-related events (120 mg/day (n = 86)): 11.6%; patients with grade 4 TEAEs (120 mg/day (n = 86)): 9.3%; patients with ≥ 1 TEAE of any grade (120 mg/day (n = 86)): 95.3%; Treatment-related grade 4 neutropenia (120 mg/day (n = 86), 5 patients): 5.8% and 6%; time of grade 4 neutropenia events after initiation of palazestrant (120 mg/day, approximately): 6-8 weeks; treatment discontinuation due to AEs (60 or 120 mg/day (n = 116)): 6.0%; severity of most TEAEs (RP2D of 120 mg/day): grade 1–2; also recorded: grade 1 or 2; severity of the majority of TRAEs (RP2D of 120 mg/day): grade 1 or 2; TEAE bradycardia (RP2D, 120 mg/day): 9%; TEAE photopsia (RP2D, 120 mg/day): 5%; grade of all bradycardia and photopsia events (RP2D, 120 mg/day): grade 1; treatment-related diarrhea of any grade (RP2D, 120 mg/day): 13%; treatment-related diarrhea, grade ≥ 3 (RP2D, 120 mg/day): no grade ≥ 3 events; severity of the majority of TEAEs (all dose-escalation cohorts (30 to 300 mg)): grade 1 or 2; QTcF values [1]: ≤ 500 ms; changes in QTcF [1]: no clinically significant changes; discontinuations due to AEs assessed as related to palazestrant (of seven patients who discontinued due to AEs): 5 patients; neutropenia resolved upon treatment discontinuation (of the 5 patients with treatment-related grade 4 neutropenia, 120 mg/day): 2 patients; grade 4 neutropenia resolved following discontinuation of palazestrant (of the 6 patients with grade 4 neutropenia): 3 patients; TEAE Constipation, Toxicity Grade All (phase 1a, 30 mg (N=5)): 1 (20.0); TEAE Constipation, Toxicity Grade G3 (phase 1a, 30 mg (N=5)): 0; TEAE Constipation, Toxicity Grade G4 (phase 1a, 30 mg (N=5)): 0; TEAE Decreased appetite, Toxicity Grade All (phase 1a, 30 mg (N=5)): 1 (20.0); TEAE Decreased appetite, Toxicity Grade G3 (phase 1a, 30 mg (N=5)): 0; TEAE Decreased appetite, Toxicity Grade G4 (phase 1a, 30 mg (N=5)): 0; TEAE Diarrhea, Toxicity Grade All (phase 1a, 30 mg (N=5)): 2 (40.0); TEAE Diarrhea, Toxicity Grade G3 (phase 1a, 30 mg (N=5)): 0; TEAE Diarrhea, Toxicity Grade G4 (phase 1a, 30 mg (N=5)): 0; TEAE Fatigue, Toxicity Grade All (phase 1a, 30 mg (N=5)): 2 (40.0); TEAE Fatigue, Toxicity Grade G3 (phase 1a, 30 mg (N=5)): 0; TEAE Fatigue, Toxicity Grade G4 (phase 1a, 30 mg (N=5)): 0; TEAE Headache, Toxicity Grade All (phase 1a, 30 mg (N=5)): 1 (20.0); TEAE Headache, Toxicity Grade G3 (phase 1a, 30 mg (N=5)): 0; TEAE Headache, Toxicity Grade G4 (phase 1a, 30 mg (N=5)): 0; TEAE Maculopapular rash, Toxicity Grade All (phase 1a, 30 mg (N=5)): 1 (20.0); TEAE Maculopapular rash, Toxicity Grade G3 (phase 1a, 30 mg (N=5)): 0; TEAE Maculopapular rash, Toxicity Grade G4 (phase 1a, 30 mg (N=5)): 0; TEAE Nausea, Toxicity Grade All (phase 1a, 30 mg (N=5)): 2 (40.0); TEAE Nausea, Toxicity Grade G3 (phase 1a, 30 mg (N=5)): 0; TEAE Nausea, Toxicity Grade G4 (phase 1a, 30 mg (N=5)): 0; TEAE Neutropenia, Toxicity Grade G3 (phase 1a, 30 mg (N=5)): 0; TEAE Neutropenia, Toxicity Grade G4 (phase 1a, 30 mg (N=5)): 1 (20.0); TEAE Vomiting, Toxicity Grade All (phase 1a, 30 mg (N=5)): 1 (20.0); TEAE Vomiting, Toxicity Grade G3 (phase 1a, 30 mg (N=5)): 0; TEAE Vomiting, Toxicity Grade G4 (phase 1a, 30 mg (N=5)): 0; TEAE Neutropenia, Toxicity Grade All (phase 1a, 30 mg (N=5), includes neutropenia and neutrophil count decreased): 1 (20.0); TEAE Constipation, Toxicity Grade All (phase 1a, 60 mg (N=6)): 1 (16.7); TEAE Constipation, Toxicity Grade G3 (phase 1a, 60 mg (N=6)): 0; TEAE Constipation, Toxicity Grade G4 (phase 1a, 60 mg (N=6)): 0; TEAE Decreased appetite, Toxicity Grade All (phase 1a, 60 mg (N=6)): 0; TEAE Decreased appetite, Toxicity Grade G3 (phase 1a, 60 mg (N=6)): 0; TEAE Decreased appetite, Toxicity Grade G4 (phase 1a, 60 mg (N=6)): 0; TEAE Diarrhea, Toxicity Grade All (phase 1a, 60 mg (N=6)): 2 (33.3); TEAE Diarrhea, Toxicity Grade G3 (phase 1a, 60 mg (N=6)): 0; TEAE Diarrhea, Toxicity Grade G4 (phase 1a, 60 mg (N=6)): 0; TEAE Fatigue, Toxicity Grade All (phase 1a, 60 mg (N=6)): 3 (50.0); TEAE Fatigue, Toxicity Grade G3 (phase 1a, 60 mg (N=6)): 0; TEAE Fatigue, Toxicity Grade G4 (phase 1a, 60 mg (N=6)): 0; TEAE Headache, Toxicity Grade All (phase 1a, 60 mg (N=6)): 1 (16.7); TEAE Headache, Toxicity Grade G3 (phase 1a, 60 mg (N=6)): 0; TEAE Headache, Toxicity Grade G4 (phase 1a, 60 mg (N=6)): 0; TEAE Maculopapular rash, Toxicity Grade All (phase 1a, 60 mg (N=6)): 1 (16.7); TEAE Maculopapular rash, Toxicity Grade G3 (phase 1a, 60 mg (N=6)): 0; TEAE Maculopapular rash, Toxicity Grade G4 (phase 1a, 60 mg (N=6)): 0; TEAE Nausea, Toxicity Grade All (phase 1a, 60 mg (N=6)): 2 (33.3); TEAE Nausea, Toxicity Grade G3 (phase 1a, 60 mg (N=6)): 0; TEAE Nausea, Toxicity Grade G4 (phase 1a, 60 mg (N=6)): 0; TEAE Neutropenia, Toxicity Grade G3 (phase 1a, 60 mg (N=6)): 0; TEAE Neutropenia, Toxicity Grade G4 (phase 1a, 60 mg (N=6)): 0; TEAE Vomiting, Toxicity Grade All (phase 1a, 60 mg (N=6)): 1 (16.7)
